According to PubChem BioAssay AID1919 (The Scripps Research Institute Molecular Screening Center, 2009):
The source made the active and inactive calls.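 Rule for the calls: active = IC50 against the VIM-2 bacterial beta-lactamase enzyme at or below a set limit; inactive = IC50 above that set limit.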

molecular target: VIM-2 metallo-beta-lactamase (Pseudomonas aeruginosa) (UniProt Q932Y6); assay: VIM-2 metallo-beta-lactamase inhibitor potency, dose response, biochemical, epi-absorbance readout, selective inhibitors (AID 1919); conditions: purified VIM-2, nitrocefin hydrolysis, epi-absorbance fluorescence

Row | Compound | IC50
1 | C=CCn1c(C2CC2)n[nH]c1=S | inactive
2 | Cc1cccc(-n2c(C)n[nH]c2=S)c1C | > 59.6 µM (inactive)
3 | CCCCc1cc(=O)oc2c3c(cc(OCC(=O)N4CCC[C@H]4C(=O)O)c12)OC(C)(C)CC3 | inactive
4 | COc1ccc(-c2cc(C(F)(F)F)nc(N3CCN(C)CC3)n2)cc1 | > 59.6 µM (inactive)
5 | COc1ccc2[nH]c(C(=O)O)c(CCN3C(=O)c4ccc(C(=O)O)cc4C3=O)c2c1 | 1.43 µM
6 | C=C(c1cccc2ccccc12)P(=O)(O)O | 6.81 µM
7 | S=c1[nH]nc(-c2ccco2)n1Cc1ccccc1 | 6.48 µM
8 | O=C(CSc1nnc(NC(=O)C2CC2)s1)NCc1ccccc1Cl | inactive
9 | COc1ccc(-c2n[nH]c(=S)n2-c2ccc3c(c2)OCCO3)cc1OC | inactive
10 | CCCc1cc(=O)oc2c3c(cc(OCC(=O)N4CCC[C@H]4C(=O)O)c12)OC(C)(C)CC3 | 6.62 µM
11 | CSc1nc(SCC(=O)O)c2c3c(sc2n1)COC(C)(C)C3 | inactive
12 | O=C(CSc1nnc(NC(=O)C2CCCCC2)s1)NCc1ccco1 | 6.64 µM
13 | COc1ccccc1-c1n[nH]c(=S)n1Cc1ccco1 | inactive
14 | O=[N+]([O-])c1ccc(-c2ccccc2)c([As](=O)(O)O)c1 | 0.748 µM
15 | COc1cc2c(cc1OC)C(C)N(C(=O)c1nccnc1C(=O)O)CC2 (stereo unspecified) | inactive
16 | CC(C)(C)c1ccc(-c2n[nH]c(=S)n2CCCN2CCOCC2)cc1 | inactive
17 | CCCCn1c(-c2sccc2C)n[nH]c1=S | 4.73 µM
18 | Cc1cc(C)n(-c2nc(SCC(=O)O)c3c4c(sc3n2)COC(C)(C)C4)n1 | inactive
19 | CCn1c(-c2nn(-c3ccccc3)ccc2=O)n[nH]c1=S | inactive
20 | O=c1[nH]c(SCc2n[nH]c(=S)n2-c2ccccc2)nc2sc3c(c12)CCC3 | > 59.6 µM (inactive)
21 | O=C(O)c1[nH]c2ccc(Cl)cc2c1CCN1C(=O)c2ccccc2C1=O | 1.29 µM
22 | Cc1cccc(C2c3[nH]c4ccccc4c3CCN2C(=O)c2cc(CC(C)C)[nH]c(=O)n2)n1 (stereo unspecified) | 7.93 µM
23 | S=c1[nH]nc(Cn2c(-c3ccccn3)nc3ccccc32)n1-c1ccc2c(c1)OCCO2 | inactive
24 | O=C(O)c1[nH]c2ccc(Br)cc2c1CCN1C(=O)c2cccc([N+](=O)[O-])c2C1=O | 1.98 µM
25 | CC(=O)c1ccc(-c2ccc(Cn3c(C)nc4cc(N)c(C)nc43)cc2)cc1 | > 59.6 µM (inactive)
26 | Cc1cc(OCc2cc(C(=O)O)oc2C)c2c3c(c(=O)oc2c1)CCCC3 | 1.49 µM

Row | Compound | IC50
27 | Cn1ccnc1SCC(=O)Nc1ccc2nc(SCC(=O)NC3CC3)sc2c1 | inactive
28 | S=c1[nH]nc(-c2ccc3ccccc3n2)n1-c1ccc2c(c1)OCCO2 | inactive
29 | CCN(CC)C(=O)CSc1nc2ccc(NC(=O)CSc3nccn3C)cc2s1 | inactive
30 | CC1=C(C(=O)O)N2C(=O)C(NC(=O)c3nn(C)cc3[N+](=O)[O-])C2SC1 (stereo unspecified) | inactive
31 | COc1ccccc1C(=O)Nc1nnc(SCC(=O)NCc2ccco2)s1 | 6.48 µM
32 | CCCc1cc(=O)oc2c3c(cc(OCC(=O)N[C@@H](C)C(=O)O)c12)OC(C)(C)CC3 | inactive
33 | Cc1c(C)c2ccc(OCC(=O)N3CCC[C@@H]3C(=O)O)c(C)c2oc1=O | 6.07 µM
34 | S=c1[nH]nc(-c2ccccc2)n1Cc1ccccc1 | inactive
35 | NC(=O)SCC(=O)Nc1ccccc1C(=O)O | inactive
36 | S=c1[nH]nc(-c2cccs2)n1C1CCCCC1 | 6.69 µM
37 | O=C(O)c1c(C(=O)O)c(-c2ccc(Br)cc2)n2c1CSC2 | 4.78 µM
38 | O=C(CSc1nnc(NC(=O)c2ccccc2[N+](=O)[O-])s1)NCc1ccco1 | 6.93 µM
39 | Cc1nn(CCc2n[nH]c(=S)n2-c2cccc(Cl)c2)c(C)c1[N+](=O)[O-] | inactive
40 | O=C1Nc2cc(C(=O)N3CCC(N4CCCCC4)CC3)ccc2S/C1=C\c1ccccc1 | inactive
41 | Cc1cc(=O)oc2c3c(cc(OCC(=O)N[C@@H](Cc4ccccc4)C(=O)O)c12)OC(C)(C)CC3 | inactive
42 | Cc1c(C)c2c(OCC(=O)N3CCC[C@H]3C(=O)O)cc3c(c2oc1=O)CCC(C)(C)O3 | 1.73 µM
43 | CSC[C@H](NC(=O)COc1cc2c(c3oc(=O)c(C)c(C)c13)CCC(C)(C)O2)C(=O)O | inactive
44 | CC(C)(C)C(=O)Nc1nnc(CSCc2ccccc2F)s1 | 4.99 µM
45 | O=C(CSc1nnc(NC(=O)c2c(F)cccc2F)s1)NCc1ccccc1 | 9.26 µM
46 | Cc1cc(C(=O)OCC(=O)NC(=O)c2cccn2C)c2ccccc2n1 | > 59.6 µM (inactive)
47 | Fc1ccccc1-c1n[nH]c(=S)n1Cc1ccccc1 | inactive
48 | O=C1Nc2cc(C(=O)NCCCN3CCOCC3)ccc2S/C1=C/c1ccccc1F | inactive
49 | Cc1ccc(-c2c(C(=O)O)c(C(=O)O)c3n2CSC3)cc1 | 9.91 µM
50 | O=C(O)C1Sc2[nH]c(=O)sc2C2c3cc(Cl)ccc3OC(=O)C12 (stereo unspecified) | > 59.6 µM (inactive)
51 | O=C(CSc1nnc(NC(=O)c2ccccc2F)s1)NCc1ccc(F)cc1 | inactive
